Read-outs that look alike come from different tables or passages of the source.

A short description of the data set: Solubility of Formula (I) in simulated gastric and fasted simulated intestinal fluid. The format is physicochemical. The text has this: Furthermore, we have observed that the compound of Formula (I) may form a viscous material at low pH, which has the effect of reducing the rate at which the drag dissolves. In order to achieve an acceptable rate and extent of dissolution across the physiological pH range, the earlier clinical formulation was manufactured using conditions designed to give a fine granule which, when compressed into tablet form would disperse rapidly upon administration. While this approach did result in an improvement in dissolution performance, ‘filming’ problems were experienced during manufacture. In addition, it was observed that the use of conventional lubricants such as magnesium stearate and sodium stearyl fumarate led to chemical degradation including impurity formation and/or complexation.

Take `COc1cc(CCc2cc(NC(=O)c3ccc(N4C[C@@H](C)N[C@@H](C)C4)cc3)n[nH]2)cc(OC)c1` [Formula (I), N-[5-[2-(3,5-dimethoxyphenyl)ethyl]-2H-pyrazol-3-yl]-4-[(3R,5S)-3,5-dimethylpiperazin-1-yl]benzamide]: the solubility is approximately 250 µg/mL (fasted simulated intestinal fluid, pH 6.5, fassif, read-out: solubility in fasted simulated intestinal fluid) and approximately 5000 µg/mL (simulated gastric fluid, pH 1.2, simulated gastric fluid, read-out: solubility in simulated gastric fluid).

Source of the values: patent US10420764B2, “Pharmaceutical formulation of N-[5-[2-(3,5-dimethoxyphenyl)ethyl]-2H-pyrazol-3-YL]-4-[(3R,5S)-3 ,5-dimethylpiperazin-1-YL] benzamide” (AstraZeneca AB, priority 2012, dated 2019).
